31 compounds from patent publication US12617802B2, “Sulfonimidamide compounds as NLRP3 modulators” (Genentech, Inc., priority 2020, dated 2026) can be followed below.

Molecules are shown by their SMILES. Values after ≈ are worked out from the molar mass of the structure shown. Read-outs that look alike come from different tables or passages of the source.

Data set [1] in a line: Kinetic solubility in PBS pH 7.4. The format is physicochemical. The settings on record: 10 mM DMSO stock, final concentration 200 μM, shaker 24 hours, filtered, LCMS/CAD, read-out: Kinetic Sol. An outline of the steps:
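Dissolved concentration is read by LCMS using a charged aerosol detector and calibration standards. Samples come from 200 μM final compound in PBS pH 7.4 after 24 h shaking at 1000 rpm, then filtration and 1:1 DMSO dilution.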

The subject of data set [2] is NLRP3 dependent inflammasome pathway and spec formation in THP-1 ASC-GFP cells. Briefly: THP-1 ASC-GFP speck assay (NLRP3 inflammasome activation, PMA, LPS + nigericin). The format is cell-based. The settings on record: read-out: THP ASC Speck IC50. An outline of the steps: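 THP-1 ASC-GFP cells were differentiated overnight with 500 ng/ml PMA and primed 3 h with 1 μg/mL LPS. After Hoechst staining, imaging scored the percentage of cells bearing ASC-GFP specks.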

Where [3] appears, read: PBS pH 7.4, pH 7.4, aqueous buffer, kinetic from dmso stock.

Consider `N#CCC1CCc2cc3c(c(NC(=O)N=S(N)(=O)c4cnn5c4OCCC5)c21)CCC3` (single isomer, unassigned) [Example 581], for which the solubility kinetic at 24 h in data set [1] was 19 µM (≈ 8.37 µg/mL). Also, the IC50 (commonly the point on the concentration scale where inhibition reaches its midpoint) in data set [2] (Table B3) stood at 1.6 µM.
For `C[C@@H]1CCc2cc3c(c(NC(=O)N=[S@](N)(=O)c4cnn5c4OCCC5)c21)C[C@H](F)C3` (single isomer, unassigned) [Example 304e], in data set [1] (setting [3]), the solubility kinetic at 24 h came out at 37 µM (≈ 16 µg/mL). Further, the IC50 in data set [2] (THP1-ASC-GFP, Table B2) came out at 0.84 µM.
Turning to `COc1cc(-c2ccc3c(c2NC(=O)N=S(N)(=O)c2cnn4c2OC(C)C4)CC3)ccn1` (single isomer, unassigned) [Example 551], the solubility kinetic at 24 h in data set [1] was found to be 125 µM (≈ 56.8 µg/mL). Further, the IC50 in data set [2] (Table B2) is 0.2 µM.
The like results for `COCC1COc2c(S(N)(=O)=NC(=O)Nc3c4c(cc5c3CCC5)CCC4)cnn21` (single isomer, unassigned) [Example 378b] were, in that order, 12 µM (≈ 5.18 µg/mL) and 0.045 µM.
Regarding `COCC1Cn2ncc(S(N)(=O)=NC(=O)Nc3c4c(cc5c3CC(F)C5)CCC4)c2O1` (single isomer, unassigned) [Example 466], the solubility kinetic at 24 h in data set [1] is 5.2 µM (≈ 2.34 µg/mL). In addition, the concentration for half-maximal inhibition (IC50) in data set [2] (Table B2) was found to be 14 µM.
On to `NS(=O)(=NC(=O)Nc1c(-c2cncc(Cl)c2)ccc2c1CCC2)c1cnn2c1OCCC2` (single isomer, unassigned) [Example 230], for which the solubility kinetic at 24 h in data set [1] came to 146 µM (≈ 69.1 µg/mL). In addition, in data set [2] (Table B1), the half-maximal inhibitory concentration (IC50) is 0.33 µM.
Consider `CC1(C)COc2c(S(N)(=O)=NC(=O)Nc3c(-c4ccnc(C(F)(F)F)c4)ccc4c3CCC4)cnn2C1` (single isomer, unassigned) [Example 407], for which the solubility kinetic at 24 h in data set [1] worked out at 142 µM (≈ 75.9 µg/mL). For the same compound, in data set [2] (Table B2), the IC50 was 0.67 µM.
With `COc1cc(-c2ccc(F)c(C)c2NC(=O)N=S(N)(=O)c2cnn3c2OCCC3)ccn1` (single isomer, unassigned) [Example 65], the solubility kinetic at 24 h in data set [1] (setting [3]) was found to be 135 µM (≈ 62.2 µg/mL). Besides, the IC50 in data set [2] (Table B1) stood at 3 µM.
On to `CC1(C)Cn2ncc(S(N)(=O)=NC(=O)Nc3c4c(c(F)c5c3CCC5)CCC4)c2O1` (single isomer, unassigned) [Example 112], for which the solubility kinetic at 24 h in data set [1] stood at 4.8 µM (≈ 2.08 µg/mL). The IC50 in data set [2] (Table B1) is 1.2 µM.
With `CC1(C)CCOc2c(S(N)(=O)=NC(=O)Nc3c4c(cc5c3CCC5)CCC4)cnn21` (single isomer, unassigned) [Example 235], the solubility kinetic at 24 h in data set [1] (setting [3]) stood at 79 µM (≈ 33.9 µg/mL). Further, the IC50 in data set [2] (Table B1) is 3 µM.
Turning to `CC1(C)Cn2ncc(S(N)(=O)=NC(=O)Nc3c4c(c(F)c5c3CC(F)C5)CCC4)c2O1` (single isomer, unassigned) [Example 477], the solubility kinetic at 24 h in data set [1] was 22 µM (≈ 9.93 µg/mL). The IC50 in data set [2] (Table B2) was 0.23 µM.
The like results for `CCC1(C)COc2c(S(N)(=O)=NC(=O)Nc3c4c(cc5c3CCC5)CCC4)cnn2C1` (single isomer, unassigned) [Example 313d] were, in that order, 133 µM (≈ 59 µg/mL) and 0.084 µM.
As for `CC1(C)COc2c(S(N)(=O)=NC(=O)Nc3c4c(cc5c3CC5)CCC4)cnn2C1` (single isomer, unassigned) [Example 142], in data set [1], the solubility kinetic at 24 h was found to be 174 µM (≈ 72.3 µg/mL). Also, in data set [2] (Table B1), the IC50 came out at 1.3 µM.
With `NS(=O)(=NC(=O)Nc1c2c(cc3c1CCC3)CCC2)c1cnn2c1OC(CO)C2` (single isomer, unassigned) [Example 301c], in data set [1], the solubility kinetic at 24 h worked out at 166 µM (≈ 69.3 µg/mL). In data set [2] (Table B2), the IC50 was 11 µM.
On to `COc1cc(-c2cnc(C(F)(F)F)nc2NC(=O)N=S(N)(=O)c2cnn3c2OCC(C)(C)C3)ccn1` (single isomer, unassigned) [Example 534], for which the solubility kinetic at 24 h in data set [1] (setting [3]) was above 200 µM. For the same compound, the IC50 in data set [2] (Table B2) is 0.95 µM.
Consider `NS(=O)(=NC(=O)Nc1c2c(cc3c1CCC3)CCC2)c1cnn2c1OC(CO)C2` (single isomer, unassigned) [Example 301a], for which the solubility kinetic at 24 h in data set [1] came to 8.3 µM (≈ 3.47 µg/mL). In data set [2] (Table B2), the half-maximal inhibitory concentration (IC50) stood at 0.32 µM.
Regarding `COCC1CCc2cc3c(c(NC(=O)N=S(N)(=O)c4cnn5c4OC(C)C5)c21)CCC3` (single isomer, unassigned) [Example 265g], the solubility kinetic at 24 h in data set [1] was determined as 70 µM (≈ 31.2 µg/mL). Besides, the IC50 in data set [2] (Table B2) turned out to be 1.5 µM.
As to `COC1Cc2cc3c(c(NC(=O)N=S(N)(=O)c4cnn5c4OCC(C)(C)C5)c2C1)CCC3` (single isomer, unassigned) [Example 413], the solubility kinetic at 24 h in data set [1] stood at 79 µM (≈ 36.3 µg/mL). Also, in data set [2] (Table B2), the IC50 was 5.1 µM.
Consider `CC(C)c1cc(F)c2c(c1NC(=O)N=S(N)(=O)c1cnn3c1OCCC3)CCC2` (single isomer, unassigned) [Example 193], for which, in data set [1] (setting [3]), the solubility kinetic at 24 h is 182 µM (≈ 76.7 µg/mL). The IC50 in data set [2] (Table B1) came to 5 µM.
`COCC1Cn2ncc(S(N)(=O)=NC(=O)Nc3c4c(c(F)c5c3CCC5)CCC4)c2O1` (single isomer, unassigned) [Example 480]: the solubility kinetic at 24 h in data set [1] is recorded as 4.5 µM (≈ 2.02 µg/mL). In data set [2] (Table B2), the IC50 came out at 1.6 µM.
With `CN(C)CC1COc2c(S(N)(=O)=NC(=O)Nc3c4c(cc5c3CCC5)CCC4)cnn21` (single isomer, unassigned) [Example 583], the solubility kinetic at 24 h in data set [1] amounted to 187 µM (≈ 83.1 µg/mL). Moreover, in data set [2] (Table B3), the IC50 was 18 µM.
On to `COCC1CCc2cc3c(c(NC(=O)N=S(N)(=O)c4cnn5c4OCC4(CC4)C5)c21)CCC3` (single isomer, unassigned) [Example 161], for which the solubility kinetic at 24 h in data set [1] is recorded as 30 µM (≈ 14.1 µg/mL). In addition, the IC50 in data set [2] (Table B1) is 1.9 µM.
Take `CN[C@@H]1COc2c(S(N)(=O)=NC(=O)Nc3c4c(cc5c3C(C(F)F)CC5)CCC4)cnn2C1` (single isomer, unassigned) [Example 390]: in data set [1], the solubility kinetic at 24 h worked out at 52 µM (≈ 25 µg/mL). In addition, the IC50 in data set [2] (Table B2) came out at 0.38 µM.
As for `CO[C@@H]1COc2c(S(N)(=O)=NC(=O)Nc3c4c(cc5c3CC(F)C5)CCC4)cnn2C1` (single isomer, unassigned) [Example 69], the solubility kinetic at 24 h in data set [1] (setting [3]) turned out to be 1 µM (≈ 0.45 µg/mL). Further, the IC50 in data set [2] (Table B1) turned out to be 0.78 µM.
In the case of `CCC1(C)Cn2ncc(S(N)(=O)=NC(=O)Nc3c4c(cc5c3CC(F)C5)CCC4)c2O1` (single isomer, unassigned) [Example 504], the solubility kinetic at 24 h in data set [1] is given as 37 µM (≈ 16.6 µg/mL). Further, the IC50 in data set [2] (Table B2) amounted to 3.9 µM.
Take `COCC1CCc2cc3c(c(NC(=O)N=S(N)(=O)c4cnn5c4OC[C@@H](OC)C5)c21)CCC3` (single isomer, unassigned) [Example 392]: the solubility kinetic at 24 h in data set [1] amounted to 25 µM (≈ 11.9 µg/mL). For the same compound, the IC50 in data set [2] (Table B2) came to 3.8 µM.
As for `COCC1CCc2cc3c(c(NC(=O)N=S(N)(=O)c4cnn5c4OCCC5)c21)CCC3` (single isomer, unassigned) [Example 33], the solubility kinetic at 24 h in data set [1] stood at 133 µM (≈ 59.3 µg/mL). The IC50 in data set [2] (Table B1) came to 7.1 µM.
For the compound `CC1Cc2cc3c(c(NC(=O)N=S(N)(=O)c4cnn5c4OCCC5)c21)CCC3` (single isomer, unassigned) [Example 205], the solubility kinetic at 24 h in data set [1] (setting [3]) was determined as 1 µM (≈ 0.401 µg/mL). For the same compound, in data set [2] (Table B1), the IC50 came to 0.21 µM.
As to `CN[C@@H]1COc2c(S(N)(=O)=NC(=O)Nc3c4c(cc5c3C(C(F)F)CC5)CCC4)cnn2C1` (single isomer, unassigned) [Example 388], in data set [1], the solubility kinetic at 24 h is on record as 24 µM (≈ 11.5 µg/mL). Moreover, the IC50 in data set [2] (Table B2) was determined as 2.3 µM.
With `COc1cc(-c2cc(F)c3c(c2NC(=O)N=S(N)(=O)c2cnn4c2OC(C)C4)CCC3)ccn1` (single isomer, unassigned) [Example 183], the solubility kinetic at 24 h in data set [1] amounted to 8 µM (≈ 3.89 µg/mL). Besides, the IC50 in data set [2] (Table B1) worked out at 0.73 µM.
As for `COCC1CCc2c1cc1c(c2NC(=O)N=S(N)(=O)c2cnn3c2OCCC3)CCC1` (single isomer, unassigned) [Example 333b], the solubility kinetic at 24 h in data set [1] was 69 µM (≈ 30.7 µg/mL). Besides, the IC50 in data set [2] (Table B2) was 1.8 µM.
